Test [1] deals with T1, TRPV3-6M/4PM (Mus musculus, UniProt Q8K424, A560T/F522S/F625L/F656I/F666Y/H523E/L557M/Q580E/V587L/W521Y).
T1 construct: expressed in transfected cells; host or cells: Xenopus laevis oocytes
T1 sequence (Q8K424 1-791 W521Y/F522S/H523E/L557M/A560T/Q580E/V587L/F625L/F656I/F666Y): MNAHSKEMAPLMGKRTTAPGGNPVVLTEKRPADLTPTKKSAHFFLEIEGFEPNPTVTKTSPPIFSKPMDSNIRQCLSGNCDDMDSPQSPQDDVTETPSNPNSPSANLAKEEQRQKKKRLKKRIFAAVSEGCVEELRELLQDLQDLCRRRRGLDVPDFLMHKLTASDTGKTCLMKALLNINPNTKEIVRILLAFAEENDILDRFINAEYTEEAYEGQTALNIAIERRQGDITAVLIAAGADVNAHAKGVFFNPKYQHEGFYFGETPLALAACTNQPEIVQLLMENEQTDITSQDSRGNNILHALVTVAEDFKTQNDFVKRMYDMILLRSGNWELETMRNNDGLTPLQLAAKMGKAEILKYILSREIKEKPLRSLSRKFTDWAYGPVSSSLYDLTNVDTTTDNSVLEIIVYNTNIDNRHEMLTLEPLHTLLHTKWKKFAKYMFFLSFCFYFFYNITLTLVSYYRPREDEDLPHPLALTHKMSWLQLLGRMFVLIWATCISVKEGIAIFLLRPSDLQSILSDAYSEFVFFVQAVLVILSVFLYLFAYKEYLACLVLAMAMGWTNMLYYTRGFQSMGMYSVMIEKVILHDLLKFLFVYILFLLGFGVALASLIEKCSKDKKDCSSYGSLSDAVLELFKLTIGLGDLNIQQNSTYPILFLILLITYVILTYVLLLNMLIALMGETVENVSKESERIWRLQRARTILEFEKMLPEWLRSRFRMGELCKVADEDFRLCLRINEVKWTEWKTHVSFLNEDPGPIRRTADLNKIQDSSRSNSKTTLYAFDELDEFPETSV
Kind of test: Two-electrode voltage clamp, TRPV3-6M/4PM in oocytes. Conditions: RTx 100 nM, 2-APB 3 mM, +60 mV. The class given is cell-based. The procedure: (§1) All channel constructs were expressed in Xenopus laevis oocytes and studied using the two-electrode voltage clamp technique (TEVC) following 1–4 days of incubation after cRNA injection. The animal care and experimental procedures were performed in accordance with the Guide for the Care and Use of Laboratory Animals and were approved by the Animal Care and Use Committee of the National Institute of Neurological Disorders and Stroke (Animal protocol number 1253–17). Oocytes were removed surgically and incubated with agitation for 1 hr in a solution containing (in mM) 82.5 NaCl, 2.5 KCl, 1 MgCl2, 5 HEPES, pH 7.6 (with NaOH), and collagenase (2 mg/ml; Worthington Biochemical, Lakewood, NJ). Defolliculated oocytes were injected with cRNA for each of the constructs and incubated at 17°C in a solution containing (in mM) 96 NaCl, 2 KCl, 1 MgCl2, 1.8 CaCl2, 5 HEPES, pH 7.6 (with NaOH), and gentamicin (50 μg/ml, GIBCO-BRL, Gaithersburg, MD). Oocyte membrane voltage was controlled using an OC-725C oocyte clamp (Warner Instruments, Hamden, CT). Data were filtered at 1–3 kHz and digitized at 20 kHz using pClamp software (Molecular Devices, Sunnyvale, CA) and a Digidata 1440A digitizer (Axon Instruments). Microelectrode resistances were 0.1–1 MΩ when filled with 3 M KCl. For recording TRP channel currents, the external recording solution contained (in mM) 100 KCl, 10 HEPES, pH 7.6 (with KOH). […]

Test [2] has as its target T2, rat TRPV2-4M (Rattus norvegicus, UniProt Q9WUD2, F472S/L507M/L510T/Q530E).
T2 construct: expressed in transfected cells; host or cells: Xenopus laevis oocytes
T2 sequence (Q9WUD2 1-761 F472S/L507M/L510T/Q530E): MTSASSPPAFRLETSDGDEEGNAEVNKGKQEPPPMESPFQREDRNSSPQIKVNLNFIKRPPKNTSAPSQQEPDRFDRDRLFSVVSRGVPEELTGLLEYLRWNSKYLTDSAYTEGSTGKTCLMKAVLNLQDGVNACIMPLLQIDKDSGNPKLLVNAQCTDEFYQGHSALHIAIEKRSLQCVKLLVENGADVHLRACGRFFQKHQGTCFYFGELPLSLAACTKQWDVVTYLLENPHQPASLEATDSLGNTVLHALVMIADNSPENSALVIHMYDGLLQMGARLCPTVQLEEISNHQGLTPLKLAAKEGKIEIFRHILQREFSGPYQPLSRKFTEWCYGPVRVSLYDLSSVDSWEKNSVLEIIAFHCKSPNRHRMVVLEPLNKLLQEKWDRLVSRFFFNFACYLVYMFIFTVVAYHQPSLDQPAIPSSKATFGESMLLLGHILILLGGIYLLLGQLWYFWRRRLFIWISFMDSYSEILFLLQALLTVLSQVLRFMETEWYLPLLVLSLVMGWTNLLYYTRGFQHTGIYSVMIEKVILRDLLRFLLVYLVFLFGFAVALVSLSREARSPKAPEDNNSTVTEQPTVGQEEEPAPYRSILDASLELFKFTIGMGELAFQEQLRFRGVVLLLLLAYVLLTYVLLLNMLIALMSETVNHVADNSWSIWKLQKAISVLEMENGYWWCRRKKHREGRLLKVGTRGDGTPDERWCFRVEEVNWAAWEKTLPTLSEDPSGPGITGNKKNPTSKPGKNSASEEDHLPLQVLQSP
Kind of test: Two-electrode voltage clamp, TRPV2-4M in oocytes. The class given is cell-based. To be noted: RTx 100 nM, room temperature, ±60 mV. As for the experimental part:
as §1
On the technique in general: Two-electrode voltage clamp is typically applied to oocytes expressing channels or transporters.

Consider one compound from paper PMC6333442, “Conserved allosteric pathways for activation of TRPV3 revealed through engineering vanilloid-sensitivity” (eLife, 2019).

For `C=C(C)[C@]12C[C@@H](C)[C@@]34O[C@](Cc5ccccc5)(O[C@@H]1[C@@H]3C=C(COC(=O)Cc1ccc(O)c(OC)c1)C[C@]1(O)C(=O)C(C)=C[C@@H]41)O2` [RTx, resiniferatoxin], the “response to RTx compared with maximal response to 2-APB” value in test [1] was “similar”. For the same compound, the “channel activation (current response)” value in test [2] was “robust responses”.
